Assay results taken from US6852673B2, “Herbicidal pyridine compounds” (BASF Aktiengesellschaft, priority 1998, dated 2005).

Tests used:
Type in all cases: in vivo
[1] = test system: Triticum aestivum (TRZAW); test: Pre-emergence herbicidal evaluation, winter wheat
Description: (§1) The pre-emergence herbicidal activity of the compounds of the present invention is exemplified by the following test in which the seeds of a variety of monocotyledonous and dicotyledonous plants are seperately mixed with potting soil and planted on top of approximately one inch of soil in separate pots. After planting, the pots are sprayed with the selected aqueous acetone solution containing test compound in sufficient quantity to provide the equivalent of about 0.0125 to 0.4 kg per hectare of test compound per pot. The treated pots are then placed on greenhouse benches, watered and cared for in accordance with conventional greenhouse procedures. From 2 to 4 weeks after treatment, the tests are terminated and each pot is examined and rated according to the rating system set forth below.

[2] = test system: Cassia obtusifolia (CASOB); test: Pre-emergence herbicidal evaluation, sicklepod
Description: as §1

Galium aparine (GALAP) [3] = test: Pre-emergence herbicidal evaluation, cleaver
Description: as §1

Stellaria media (STEME) = test: Pre-emergence herbicidal evaluation, chickweed
Description: as §1

[4] = test system: Ambrosia artemiisifolia (AMBEL); test: Post-emergence herbicidal evaluation, ragweed; conditions: rated 2 to 4 weeks after treatment
Description: (§2) [table] [table] […] These acetone solutions are diluted with water and the resulting formulations applied at dosage levels equivalent of about 0.03 to 0.4 kg per hectare of test compound per pot. After spraying the plants are placed on greenhouse benches and are cared for in the usual manner, commensurate with conventional greenhouse practices. From 2 to 4 weeks after treatment, the seedling plants are examined and rated according to the rating system provided above. A rating 0 indicates growth as untreated control, a rating 9 indicates death.

Galium aparine (GALAP) [5] = test: Post-emergence herbicidal evaluation, cleaver; conditions: rated 2 to 4 weeks after treatment
Description: as §2

[6] = test system: Alopecurus myosuroides (ALOMY); test: Post-emergence herbicidal evaluation, black grass; conditions: rated 2 to 4 weeks after treatment
Description: as §2

Setaria viridis (SETVI) = test: Post-emergence herbicidal evaluation, green foxtail; conditions: rated 2 to 4 weeks after treatment
Description: as §2

[7] = test system: Digitaria sanguinalis (DIGSA); test: Pre-emergence herbicidal evaluation, large crabgrass
Description: as §1

[8] = test system: Cassia obtusifolia (CASOB); test: Post-emergence herbicidal evaluation, sicklepod; conditions: rated 2 to 4 weeks after treatment
Description: as §2

Cc1cc(OC=CCC(F)(F)F)nc(Oc2cc(C(F)(F)F)nn2C)c1 [Example 2, 2-(1-Methyl-3-trifluoromethylpyrazol-5-yloxy)-4-methyl-6-(4,4,4-trifluorobut-1-enyloxy)pyridine]
TRZAW rating ([1]; dose 0.013 kg/ha): 0 (0 - No effect) | TRZAW rating ([1]; dose 0.025 kg/ha): 0 (0 - No effect) | TRZAW rating ([1]; dose 0.1 kg/ha): 1 (1 - Trace effect) | TRZAW rating ([1]; dose 0.4 kg/ha): 3 (3 - Moderate effect) | CASOB rating ([2]; dose 0.013 kg/ha): 0 (0 - No effect) | CASOB rating ([2]; dose 0.025 kg/ha): 1 (1 - Trace effect) | CASOB rating ([2]; dose 0.1 kg/ha): 9 (9 - Complete kill) | CASOB rating ([2]; dose 0.4 kg/ha): 9 (9 - Complete kill) | GALAP rating (Galium aparine (GALAP) [3]; dose 0.013 kg/ha): 0 (0 - No effect) | GALAP rating (Galium aparine (GALAP) [3]; dose 0.025 kg/ha): 0 (0 - No effect) | GALAP rating (Galium aparine (GALAP) [3]; dose 0.1 kg/ha): 2 (2 - Slight effect) | GALAP rating (Galium aparine (GALAP) [3]; dose 0.4 kg/ha): 9 (9 - Complete kill) | STEME rating (Stellaria media (STEME); dose 0.013 kg/ha): 0 (0 - No effect) | STEME rating (Stellaria media (STEME); dose 0.025 kg/ha): 0 (0 - No effect) | STEME rating (Stellaria media (STEME); dose 0.1 kg/ha): 9 (9 - Complete kill) | STEME rating (Stellaria media (STEME); dose 0.4 kg/ha): 9 (9 - Complete kill) | AMBEL rating ([4]; dose 0.03 kg/ha): 5 (5 - Definite injury) | AMBEL rating ([4]; dose 0.1 kg/ha): 6 (6 - Herbicidal effect) | AMBEL rating ([4]; dose 0.4 kg/ha): 8 (8 - Approaching complete kill) | GALAP rating (Galium aparine (GALAP) [5]; dose 0.03 kg/ha): 5 (5 - Definite injury) | GALAP rating (Galium aparine (GALAP) [5]; dose 0.1 kg/ha): 7 (7 - Good herbicidal effect) | GALAP rating (Galium aparine (GALAP) [5]; dose 0.4 kg/ha): 9 (9 - Complete kill) | ALOMY rating ([6]; dose 0.03 kg/ha): 2 (2 - Slight effect) | ALOMY rating ([6]; dose 0.1 kg/ha): 5 (5 - Definite injury) | ALOMY rating ([6]; dose 0.4 kg/ha): 8 (8 - Approaching complete kill) | SETVI rating (Setaria viridis (SETVI); dose 0.03 kg/ha): 4 (4 - Injury) | SETVI rating (Setaria viridis (SETVI); dose 0.1 kg/ha): 8 (8 - Approaching complete kill) | SETVI rating (Setaria viridis (SETVI); dose 0.4 kg/ha): 8 (8 - Approaching complete kill)

COc1cc(OCC(F)(F)C(F)F)nc(Oc2cc(C(F)(F)F)nn2C)c1 [Example 4, 2-(1-Methyl-3-trifluoromethylpyrazol-5-yloxy)-4-methoxy-6-(2,2,3,3-tetrafluoropropyloxy)pyridine]
TRZAW rating ([1]; dose 0.013 kg/ha): 0 (0 - No effect) | TRZAW rating ([1]; dose 0.025 kg/ha): 0 (0 - No effect) | TRZAW rating ([1]; dose 0.1 kg/ha): 1 (1 - Trace effect) | TRZAW rating ([1]; dose 0.4 kg/ha): 4 (4 - Injury) | CASOB rating ([2]; dose 0.013 kg/ha): 3 (3 - Moderate effect) | CASOB rating ([2]; dose 0.025 kg/ha): 4 (4 - Injury) | CASOB rating ([2]; dose 0.1 kg/ha): 7 (7 - Good herbicidal effect) | CASOB rating ([2]; dose 0.4 kg/ha): 9 (9 - Complete kill) | GALAP rating (Galium aparine (GALAP) [3]; dose 0.013 kg/ha): 1 (1 - Trace effect) | GALAP rating (Galium aparine (GALAP) [3]; dose 0.025 kg/ha): 3 (3 - Moderate effect) | GALAP rating (Galium aparine (GALAP) [3]; dose 0.1 kg/ha): 5 (5 - Definite injury) | GALAP rating (Galium aparine (GALAP) [3]; dose 0.4 kg/ha): 8 (8 - Approaching complete kill) | STEME rating (Stellaria media (STEME); dose 0.013 kg/ha): 4 (4 - Injury) | STEME rating (Stellaria media (STEME); dose 0.025 kg/ha): 6 (6 - Herbicidal effect) | STEME rating (Stellaria media (STEME); dose 0.1 kg/ha): 9 (9 - Complete kill) | STEME rating (Stellaria media (STEME); dose 0.4 kg/ha): 9 (9 - Complete kill) | AMBEL rating ([4]; dose 0.03 kg/ha): 3 (3 - Moderate effect) | AMBEL rating ([4]; dose 0.1 kg/ha): 6 (6 - Herbicidal effect) | AMBEL rating ([4]; dose 0.4 kg/ha): 7 (7 - Good herbicidal effect) | GALAP rating (Galium aparine (GALAP) [5]; dose 0.03 kg/ha): 6 (6 - Herbicidal effect) | GALAP rating (Galium aparine (GALAP) [5]; dose 0.1 kg/ha): 9 (9 - Complete kill) | GALAP rating (Galium aparine (GALAP) [5]; dose 0.4 kg/ha): 9 (9 - Complete kill) | ALOMY rating ([6]; dose 0.03 kg/ha): 3 (3 - Moderate effect) | ALOMY rating ([6]; dose 0.1 kg/ha): 6 (6 - Herbicidal effect) | ALOMY rating ([6]; dose 0.4 kg/ha): 8 (8 - Approaching complete kill) | SETVI rating (Setaria viridis (SETVI); dose 0.03 kg/ha): 6 (6 - Herbicidal effect) | SETVI rating (Setaria viridis (SETVI); dose 0.1 kg/ha): 8 (8 - Approaching complete kill) | SETVI rating (Setaria viridis (SETVI); dose 0.4 kg/ha): 9 (9 - Complete kill)

Cc1cc(OCC=C(Cl)Cl)nc(Oc2cc(C(F)(F)F)nn2C)c1 [Example 12]
TRZAW rating ([1]; dose 0.013 kg/ha): 1 (1 - Trace effect) | TRZAW rating ([1]; dose 0.025 kg/ha): 2 (2 - Slight effect) | TRZAW rating ([1]; dose 0.1 kg/ha): 3 (3 - Moderate effect) | TRZAW rating ([1]; dose 0.4 kg/ha): 6 (6 - Herbicidal effect) | GALAP rating (Galium aparine (GALAP) [3]; dose 0.013 kg/ha): 1 (1 - Trace effect) | GALAP rating (Galium aparine (GALAP) [3]; dose 0.025 kg/ha): 4 (4 - Injury) | GALAP rating (Galium aparine (GALAP) [3]; dose 0.1 kg/ha): 8 (8 - Approaching complete kill) | GALAP rating (Galium aparine (GALAP) [3]; dose 0.4 kg/ha): 9 (9 - Complete kill) | STEME rating (Stellaria media (STEME); dose 0.013 kg/ha): 6 (6 - Herbicidal effect) | STEME rating (Stellaria media (STEME); dose 0.025 kg/ha): 8 (8 - Approaching complete kill) | STEME rating (Stellaria media (STEME); dose 0.1 kg/ha): 9 (9 - Complete kill) | STEME rating (Stellaria media (STEME); dose 0.4 kg/ha): 9 (9 - Complete kill) | DIGSA rating ([7]; dose 0.013 kg/ha): 9 (9 - Complete kill) | DIGSA rating ([7]; dose 0.025 kg/ha): 9 (9 - Complete kill) | DIGSA rating ([7]; dose 0.1 kg/ha): 9 (9 - Complete kill) | DIGSA rating ([7]; dose 0.4 kg/ha): 9 (9 - Complete kill) | AMBEL rating ([4]; dose 0.03 kg/ha): 5 (5 - Definite injury) | AMBEL rating ([4]; dose 0.1 kg/ha): 6 (6 - Herbicidal effect) | AMBEL rating ([4]; dose 0.4 kg/ha): 7 (7 - Good herbicidal effect) | CASOB rating ([8]; dose 0.03 kg/ha): 8 (8 - Approaching complete kill) | CASOB rating ([8]; dose 0.1 kg/ha): 8 (8 - Approaching complete kill) | CASOB rating ([8]; dose 0.4 kg/ha): 8 (8 - Approaching complete kill) | GALAP rating (Galium aparine (GALAP) [5]; dose 0.03 kg/ha): 7 (7 - Good herbicidal effect) | GALAP rating (Galium aparine (GALAP) [5]; dose 0.1 kg/ha): 8 (8 - Approaching complete kill) | GALAP rating (Galium aparine (GALAP) [5]; dose 0.4 kg/ha): 9 (9 - Complete kill) | ALOMY rating ([6]; dose 0.03 kg/ha): 8 (8 - Approaching complete kill) | ALOMY rating ([6]; dose 0.1 kg/ha): 9 (9 - Complete kill) | ALOMY rating ([6]; dose 0.4 kg/ha): 9 (9 - Complete kill) | SETVI rating (Setaria viridis (SETVI); dose 0.03 kg/ha): 9 (9 - Complete kill) | SETVI rating (Setaria viridis (SETVI); dose 0.1 kg/ha): 9 (9 - Complete kill) | SETVI rating (Setaria viridis (SETVI); dose 0.4 kg/ha): 9 (9 - Complete kill)

CC(Cl)=CCOc1cc(C)cc(Oc2cc(C(F)(F)F)nn2C)n1 [Example 11]
TRZAW rating ([1]; dose 0.013 kg/ha): 0 (0 - No effect) | TRZAW rating ([1]; dose 0.025 kg/ha): 2 (2 - Slight effect) | TRZAW rating ([1]; dose 0.1 kg/ha): 2 (2 - Slight effect) | TRZAW rating ([1]; dose 0.4 kg/ha): 4 (4 - Injury) | GALAP rating (Galium aparine (GALAP) [3]; dose 0.013 kg/ha): 1 (1 - Trace effect) | GALAP rating (Galium aparine (GALAP) [3]; dose 0.025 kg/ha): 3 (3 - Moderate effect) | GALAP rating (Galium aparine (GALAP) [3]; dose 0.1 kg/ha): 6 (6 - Herbicidal effect) | GALAP rating (Galium aparine (GALAP) [3]; dose 0.4 kg/ha): 8 (8 - Approaching complete kill) | activity against Stellaria (Stellaria media (STEME)): superior activity | STEME rating (Stellaria media (STEME); dose 0.013 kg/ha): 8 (8 - Approaching complete kill) | STEME rating (Stellaria media (STEME); dose 0.025 kg/ha): 9 (9 - Complete kill) | STEME rating (Stellaria media (STEME); dose 0.1 kg/ha): 9 (9 - Complete kill) | STEME rating (Stellaria media (STEME); dose 0.4 kg/ha): 9 (9 - Complete kill) | DIGSA rating ([7]; dose 0.013 kg/ha): 8 (8 - Approaching complete kill) | DIGSA rating ([7]; dose 0.025 kg/ha): 8 (8 - Approaching complete kill) | DIGSA rating ([7]; dose 0.1 kg/ha): 9 (9 - Complete kill) | DIGSA rating ([7]; dose 0.4 kg/ha): 9 (9 - Complete kill) | AMBEL rating ([4]; dose 0.03 kg/ha): 3 (3 - Moderate effect) | AMBEL rating ([4]; dose 0.1 kg/ha): 7 (7 - Good herbicidal effect) | AMBEL rating ([4]; dose 0.4 kg/ha): 8 (8 - Approaching complete kill) | GALAP rating (Galium aparine (GALAP) [5]; dose 0.03 kg/ha): 6 (6 - Herbicidal effect) | GALAP rating (Galium aparine (GALAP) [5]; dose 0.1 kg/ha): 9 (9 - Complete kill) | GALAP rating (Galium aparine (GALAP) [5]; dose 0.4 kg/ha): 9 (9 - Complete kill) | ALOMY rating ([6]; dose 0.03 kg/ha): 6 (6 - Herbicidal effect) | ALOMY rating ([6]; dose 0.1 kg/ha): 8 (8 - Approaching complete kill) | ALOMY rating ([6]; dose 0.4 kg/ha): 8 (8 - Approaching complete kill) | SETVI rating (Setaria viridis (SETVI); dose 0.03 kg/ha): 5 (5 - Definite injury) | SETVI rating (Setaria viridis (SETVI); dose 0.1 kg/ha): 6 (6 - Herbicidal effect) | SETVI rating (Setaria viridis (SETVI); dose 0.4 kg/ha): 8 (8 - Approaching complete kill)
